Measured values as given in paper PMC11609934, “Exploration and characterization of the antimalarial activity of cyclopropyl carboxamides that target the mitochondrial protein, cytochrome b” (European Journal of Medicinal Chemistry, 2024).
≈ marks a conversion by molar mass, not a printed value. Read-outs that look alike come from different tables or passages of the source.

Assays:
[1] = eLogD (shake-flask, pH 7.4); format: physicochemical; details: 1-octanol/phosphate buffered saline (1:1, v/v), Shake-flask method
Method: eLogD. The LogD (pH 7.4) assay was performed using a miniaturized shake flask method. A solution of a pre-saturated mixture of 1-octanol and phosphate buffered saline (PBS) (1:1, v/v) and the test compound (75 μM) was incubated at 25 °C with constant shaking (850 rpm) for 2 h. After incubation the organic and aqueous phases were separated, and samples of each phase transferred to plate for dilution. The organic phase was diluted to 1000-fold and the aqueous phase was diluted 20-fold. The samples were quantitated using LC-MS/MS. The experiment was carried out in duplicate. Propranolol, amitriptyline, and midazolam were used as reference standards.

[2] = tested on: P. falciparum 3D7 parasites; assay: P. falciparum 3D7 asexual stage LDH assay (72 h); format: cell-based, Plasmodium falciparum; details: Plasmodium falciparum, read-out: Pf 3D7 EC50 (SD)
Procedure, shortened: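 Asexual P. falciparum 3D7 parasites were grown for 72 h over a 10-point, 3-fold series starting at 1 μM in 0.1% DMSO, with 100 nM chloroquine as negative growth control. After freeze-thaw, parasite LDH was read at 650 nm, and EC50 came from a variable-slope sigmoidal fit.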

[3] = tested on: Pf Dd2 strain with an I22L mutation in the Qi site cyt b; assay: Cyt b resistant asexual stage assay, Dd2 cyt b(I22L); format: cell-based; details: Plasmodium falciparum, DD2, 72 h, read-out: Pf cyt b mutant strains EC50 (SD) Dd2 cyt b(I22L)
Method: (§1) To determine whether the cyclopropyl carboxamide series specifically targets the Qo site of cyt b, representative analogs W466 (1), W499 (2), and the focal compound here-on referred to as WJM280 (108) were evaluated against drug-resistant parasite strains with mutations in the Qo or Qi site of cyt b. […] These mutations are mapped to a model of cyt b in Fig. 3.
(§2) Cyt b Resistant and ScDHODH Asexual Stage Assays. These assays were conducted as previously described. Briefly, asexual parasite strains indicated in Table 12 were incubated with compound in a dose response format for 72 h. Parasitemia was determined using SYBR-green fluorescence measured by flow cytometry (Thermo Fisher Attune). EC50 values were determined as described for the LDH assay.

Rat hepatocyte stability = format: in vitro ADME; details: pooled rat hepatocytes
Method: Rat Hepatocyte Stability. A solution of the test compound in Krebs-Henseliet buffer solution (1 μM) was incubated in pooled rat hepatocytes (1 × 10^6 cells/mL) for 0, 15,30,45, 60, 75 and 90 min at 37 °C (5 % CO2, 95 % relative humidity). The reaction was terminated with the addition of ice-cold acetonitrile containing system suitability standard at designated time points. […] The experiment was carried out in duplicate. Diltiazem, 7-ethoxy coumarin, propranolol, and midazolam were used as reference standards.

[4] = Human liver microsome stability; format: in vitro ADME; details: pooled human liver microsomes
Method: Human Liver Microsome Stability. A solution of the test compounds in phosphate buffer solution (1 μM) was incubated in pooled human liver microsomes (0.5 mg/mL) for 0, 5, 20, 30, 45 and 60 min at 37 °C in the presence and absence of NADPH regeneration system. The reaction was terminated with the addition of ice-cold acetonitrile containing system suitability standard at designated time points. […] The experiment was carried out in duplicate. Verapamil, diltiazem, phenacetin, and imipramine were used as reference standards.

[5] = tested on: Pf Dd2 expressing ScDHODH; assay: ScDHODH asexual stage assay; format: cell-based; details: Plasmodium falciparum, DD2, 72 h, read-out: Dd2 ScDHODH EC50 (SD)
Method: (§3) DHODH is essential for the function of the mitochondria ETC and pyrimidine biosynthesis. Compounds that inhibit cyt b typically have reduced activity against parasite strains with increased DHODH levels. To support evidence that the cyclopropyl carboxamide series impacts the mitochondrial ETC, selected analogs were evaluated against both the SB1-A6 strain that has a 2-fold amplification and a C276F SNP in PfDHODH [24] and a Dd2 strain that expresses Saccharomyces cerevisiae DHODH (ScDHODH). ScDHODH has low sequence homology to PfDHODH and is ubiquinone-independent in that it uses fumarate instead of mitochondrial coenzyme Q as an electron acceptor and therefore compounds that inhibit the Plasmodium mitochondrial ETC have reduced activity against the ScDHODH parasite strain.
as §2

Pf SB1-A6 strain = assay: Asexual stage assay, SB1-A6 strain; format: cell-based; details: Plasmodium falciparum, 72 h, read-out: SB1-A6 EC50 (SD)
Method: as §3, §2

[6] = tested on: Pf 3D7 3-oxadiazole quinolone resistant strain with a V259L mutation in the Qo site of cyt b; assay: Cyt b resistant asexual stage assay, 3D7 cyt b(V259L); format: cell-based, Plasmodium falciparum; details: for EC50: Plasmodium falciparum, 3D7, 72 h, read-out: Pf cyt b mutant strains EC50 (SD) 3D7 cyt b(V259L)
Method: as §1, §2

[7] = Aqueous solubility (kinetic in PBS, pH 7.4); format: physicochemical; details: phosphate buffered saline
Method: Solubility. The solubility assay was performed using a miniaturized shake flask method. A solution of phosphate buffered saline (PBS) and the test compound (200 μM) was incubated at 25 °C with constant shaking (600 rpm) for 2 h. The samples were filtered using a multiscreen solubility filter plate. The filtrate was half diluted in acetonitrile. A five-point linearity curve was prepared in PBS:acetonitrile (1:1, v/v) at 200, 150, 75, 25 and 2.5 μM. Blank, linearity and test samples (n = 2) were transferred to a UV readable plate and the plate was scanned for absorbance. Best fit calibration curves were constructed using the calibration standards and used to determine the test sample solubility. The experiment was carried out in duplicate. Diethylstilbestrol, haloperidol, and diclofenac sodium were used as reference standards.

SMILES | logD at 2 h [1] | EC50 ([2]; 3D7, 72 h, LDH activity of P. falciparum 3D7 parasites over 72 h, means and SDs, three or more experiments) | EC50 [3] | hepatocyte CLint at 1 μM (Rat hepatocyte stability) | microsomal CLint at 1 h, 1 µM [4] | EC50 [5] | EC50 (Pf SB1-A6 strain) | fold reduction in activity against cyt b V259L Qo site mutant compared to the Dd2 parent strain [6] | EC50 [6] | solubility at 2 h [7] | EC50 ([2]; 3D7 / DSM 265, parent 3D7 for resistant populations, LDH assay, 3 experiments (SYBR-green for DSM265))
CCCN(Cc1ccc(C(=O)NC2CC2)cc1)Cc1ccc(C(F)(F)F)cc1 [WJM280 (108), N-Cyclopropyl-4-((propyl(4-(trifluoromethyl)benzyl)amino)methyl)benzamide] | 5.2 | 40 nM | 2 nM | > 92 µL/min/1e6 cells | 62 µL/min/mg | > 10000 nM | > 10000 nM | 2 fold | 23 nM | 15 µM (≈ 5.86 µg/mL) | –
O=C(NC1CC1)c1ccc(CN(Cc2ccc(Cl)cc2Cl)C2CC2)cc1 [W499 (2)] | 4.1 | – | 49 nM | > 92 µL/min/1e6 cells | 177 µL/min/mg | > 10000 nM | > 10000 nM | 1.5 fold | 165 nM | 7.4 µM (≈ 2.88 µg/mL) | 170 nM
